Each structure is given as a SMILES string. pEC50: −log10 of the molar value. “And” between values parts separate entries of the source, which are not always exact repeats. Equal entries are not always repeated. Structures can show the parent of a compound that is named as a salt.

For data set [1], the target named is T1, human β3-adrenergic receptor (Homo sapiens, UniProt P13945).
T1 construct: Full length β3 AR clones (402 amino acids) containing the last 6 amino acids of hβ3—AR are prepared; expressed in transfected cells; host or cells: CHO cells
As to the kind of experiment: cAMP response (SPA kit) in CHO cells transfected with human β3 adrenergic receptor. It counts as cell-based. To be noted: for pEC50: CHO cells expressing human β3-AR, 10^-9 M to 10^-5 M, 30 min at 37° C., cAMP by SPA, read-out: EC50(β3); for IA(β3): maximal response of compound compared to maximal response of isoproterenol at 10^-5 M, CHO cells, human β3-AR.

T1 sequence (P13945 whole entry): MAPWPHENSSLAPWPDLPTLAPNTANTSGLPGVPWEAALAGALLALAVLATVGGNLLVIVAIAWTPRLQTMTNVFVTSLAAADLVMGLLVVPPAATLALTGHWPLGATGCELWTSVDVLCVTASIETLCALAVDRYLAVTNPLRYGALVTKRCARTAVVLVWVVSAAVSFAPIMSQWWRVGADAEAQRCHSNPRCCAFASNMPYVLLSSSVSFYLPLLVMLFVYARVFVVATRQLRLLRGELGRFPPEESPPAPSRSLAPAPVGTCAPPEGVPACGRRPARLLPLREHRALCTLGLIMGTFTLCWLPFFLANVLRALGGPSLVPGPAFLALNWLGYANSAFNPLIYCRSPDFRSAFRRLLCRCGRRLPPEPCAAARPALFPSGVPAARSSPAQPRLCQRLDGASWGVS

`Cc1ccsc1C(=O)N1CCC(Sc2ccc(CCNC[C@H](O)COc3ccc(O)cc3)cc2)CC1` [Example 106, [4-(4-{2-[(2S)-2-Hydroxy-3-(4-hydroxy-phenoxy)-propylamino]-ethyl}-phenylsulfanyl)-piperidin-1-yl]-(3-methyl-thiophen-2-yl)-methanone]: the melting point was in the range of 135 to 144 °C. Further, in data set [1], the pEC50 is 6.90 and the “IA(β3)” value is given as 0.79.
`CCCCCCCCS(=O)(=O)N1CCC(Nc2ccc(CCNC[C@H](O)COc3ccc(O)cc3)cc2)CC1` [Example 111] registered a melting point of 64 to 68 °C. Also, in data set [1], the pEC50 is 6.90 and the “IA(β3)” value was 0.78.
Take `O=C(NCc1ccccc1C(F)(F)F)N1CCC(Nc2ccc(CCNC[C@H](O)COc3ccc(O)cc3)cc2)CC1` [Example 33, 4-(4-{2-[(2S)-2-Hydroxy-3-(4-hydroxy-phenoxy)-propylamino]-ethyl}-phenylamino)-piperidine-1-carboxylic Acid 2-trifluoromethyl-benzylamide]: the melting point fell in the range of 83 to 86 °C. In data set [1], the negative-log EC50 (pEC50) is 7.26 and the “IA(β3)” value came to 0.78.
Compound `O=C(NCCCCCCCCF)N1CCC(Nc2ccc(CCNC[C@H](O)COc3ccc(O)cc3)cc2)CC1` [Example 55, N-(8-Fluorooctyl)-4-[4-(2-{[(2S)-2-hydroxy-3-(4-hydroxyphenoxy)propyl]amino}ethyl)anilino]-1-piperidinecarboxamide] showed a melting point of 148 to 150 °C. In data set [1], the pEC50 was 6.77 and the “IA(β3)” value turned out to be 1.07.
For `CS(=O)(=O)Nc1cc([C@@H](O)CNCCc2ccc(NC3CCN(C(=O)NCc4cc(F)ccc4F)CC3)cc2)ccc1O` [Example 76, 4-(4-{2-[(2R)-2-Hydroxy-2-(4-hydroxY-3-methanesulfonylamino-phenyl)-ethylamino]-ethyl}-phenylamino)-piperidine-1-carboxylic Acid 2,5-difluoro-benzylamide], the melting point was in the range of 116 to 118 °C. In addition, in data set [1], the “IA(β3)” value is recorded as 1.
As for `COc1cccc(CNC(=O)N2CCC(Nc3ccc(CCNC[C@H](O)COc4ccc(O)cc4)cc3)CC2)c1OC` [Example 25, 4-(4-{2-[(2S)-2-Hydroxy-3-(4-hydroxy-phenoxy)-propylamino]-ethyl}-phenylamino)-piperidine-1-carboxylic Acid 2,3-dimethoxy-benzylamide], the melting point lay within 87 to 91 °C. Moreover, in data set [1], the pEC50 was 7.19 and the “IA(β3)” value is 0.87.
`NC(=O)N1CCC(Nc2ccc(CCNC[C@H](O)COc3ccc(O)cc3)cc2)CC1` [Example 18, 4-(4-{2-[(2S)-2-Hydroxy-3-(4-hydroxy-phenoxy)-propylamino]-ethyl}-phenylamino)-piperidine-1-carboxylic Acid Amide] showed a melting point of 84 to 89 °C. Further, the “IA(β3)” value in data set [1] is listed as 1.
`O=C(NCCCc1cccs1)N1CCC(Nc2ccc(CCNC[C@H](O)COc3ccc(O)cc3)cc2)CC1` [Example 23, 4-(4-{2-[(2S)-2-Hydroxy-3-(4-hydroxy-phenoxy)-propylamino]-ethyl}-phenylamino)-piperidine-1-carboxylic Acid (3-thiophen-2-yl-propyl)-amide] yielded a melting point of 73 to 77 °C. Also, in data set [1], the pEC50 was 8.00 and the “IA(β3)” value is 0.88.
`CCCCCC(=O)N1CCC(Nc2ccc(CCNC[C@H](O)COc3ccc(O)cc3)cc2)CC1` [Example 103, 1-[4-(4-{2-[(2S)-2-Hydroxy-3-(4-hydroxy-phenoxy)-propylamino]-ethyl}-phenylamino)-piperidin-1-yl]-hexan-1-one] displayed a melting point of 57 to 59 °C. Besides, in data set [1], the pEC50 is 7.13 and the “IA(β3)” value is reported as 0.9.
Taken in the same sequence, the figures for `CCCCCCCCNC(=O)Nc1ccc(S(=O)(=O)N2CCC(Nc3ccc(CCNC[C@H](O)c4ccc(O)c(NS(C)(=O)=O)c4)cc3)CC2)cc1` [Example 116, N-(2-Hydroxy-5-{(1R)-1-hydroxy-2-[2-(4-{1-[4-(3-octyl-ureido)-benzenesulfonyl]-piperidin-4-ylamino}-phenyl)-ethylamino]-ethyl}-phenyl)-methanesulfonamide] were 134 to 136 °C, 9.00 and 1.1.
On the same counts, the results for `O=C(NCCCC1CCCCC1)N1CCC(Nc2ccc(CCNC[C@H](O)COc3ccc(O)cc3)cc2)CC1` [Example 68, 4-(4-{2-[(2S)-2-Hydroxy-3-(4-hydroxy-phenoxy)-propylamino]-ethyl}-phenylamino)-piperidine-1-carboxylic Acid (3-cyclohexyl-propyl)-amide] are 69 to 71 °C, 7.41 and 1.1.
With `COc1cc(OCCCOc2ccccc2)ccc1CCNC(=O)N1CCC(Nc2ccc(CCNC[C@H](O)COc3ccc(O)cc3)cc2)CC1` [Example 71, 4-(4-{2-[(2S)-2-Hydroxy-3-(4-hydroU-phenoxy)-propylamino]-ethyl}-phenylamino)-piperidine-1-carboxylic Acid {2-[2-methoxy-4-(3-phenoxy-propoxy)-phenyl]-ethyl}-amide], the melting point is 67 to 69 °C. In addition, in data set [1], the pEC50 was 6.85 and the “IA(β3)” value is recorded as 0.94.
In turn, `O=C(NCC1(c2ccccc2)CCCC1)N1CCC(Sc2ccc(CCNC[C@H](O)COc3ccc(O)cc3)cc2)CC1` [Example 43, 4-(4-{2-[(2S)-2-Hydroxy-3-(4-hydroxy-phenoxy)-propylamino]-ethyl}-phenylsulfanyl)-piperidine-1-carboxylic Acid (1-phenyl-cyclopentylmethyl)-amide] registered a melting point of 132 °C. In addition, in data set [1], the negative logarithm of the EC50 (pEC50) was 6.41 and the “IA(β3)” value turned out to be 0.81.
In turn, `O=C(NCc1cccc(F)c1)N1CCC(Nc2ccc(CCNC[C@H](O)COc3ccc(O)cc3)cc2)CC1` [Example 27, 4-(4-{2-[(2S)-2-Hydroxy-3-(4-hydroxy-phenoxy)-propylamino]-ethyl}-phenylamino)-piperidine-1-carboxylic Acid 3-fluoro-benzylamide] came in with a melting point of 68 to 73 °C. Also, in data set [1], the negative-log EC50 (pEC50) was 7.22 and the “IA(β3)” value was 0.86.
`O=C(NCc1c(F)cccc1F)N1CCC(Nc2ccc(CCNC[C@H](O)COc3ccc(O)cc3)cc2)CC1` [Example 32, 4-(4-{2-[(2S)-2-Hydroxy-3-(4-hydroxy-phenoxy)-propylamino]-ethyl}-phenylamino)-piperidine-1-carboxylic Acid 2,6-difluoro-benzylamide] gave a melting point of 80 to 84 °C. In addition, in data set [1], the “IA(β3)” value is 1.04 and 0.77.
As for `COc1ccc(C2CCN(C(=O)N3CCC(Nc4ccc(CCNC[C@H](O)COc5ccc(O)cc5)cc4)CC3)CC2)cc1OC1CCCC1` [Example 17, [4-(3-Cyclopentyloxy-4-methoxy-phenyl)-piperidin-1-yl]-[4-(4-{2-[(2S)-2-hydroxy-3-(4-hydroxy-phenoxy)-propylamino]-ethyl}-phenylamino)-piperidin-1-yl]-methanone], the melting point was 92 to 95 °C. Besides, in data set [1], the negative-log EC50 (pEC50) is 7.82 and the “IA(β3)” value stood at 0.63.
For `CCc1ccc(CCNC(=O)N2CCC(Nc3ccc(CCNC[C@H](O)COc4ccc(O)cc4)cc3)CC2)cc1` [Example 30, 4-(4-{2-[(2S)-2-Hydroxy-3-(4-hydroxy-phenoxy)-propylamino]-ethyl}-phenylamino)-piperidine-1-carboxylic Acid [2-(4-ethyl-phenyl)-ethyl]-amide], the melting point is 79 to 81 °C. For the same compound, in data set [1], the negative logarithm of the EC50 (pEC50) was 7.47 and 7.31 and 7.66 and 7.01; the “IA(β3)” value was 1 and 0.87 and 0.84 and 0.65.
Consider `COc1ccc(CCCCNC(=O)N2CCC(Nc3ccc(CCNCC(O)COc4ccc(O)cc4)cc3)CC2)cc1OC` (stereo not shown) [Example 57, 4-(4-{2-[2-Hydroxy-3-(4-hydroxy-phenoxy)-propylamino]-ethyl}-phenylamino)-piperidine-1-carboxylic Acid [4-(3,4-dimethoxy-phenyl)-butyl]-amide], for which the melting point lay within 60 to 62 °C. In data set [1], the “IA(β3)” value stood at 0.94.
`CS(=O)(=O)Nc1cc([C@@H](O)CNCCc2ccc(NC3CCN(c4ccc(S(=O)(=O)N5CCCCC5)cc4)CC3)cc2)ccc1O` [Example 119] came in with a melting point of 118 to 120 °C. In data set [1], the pEC50 is 8.10 and the “IA(β3)” value is 1.03.
With `CS(=O)(=O)Nc1cc(OC[C@@H](O)CNCCc2ccc(NC3CCN(C(=O)NCc4cc(F)ccc4F)CC3)cc2)ccc1O` [Example 50, 4-(4-{2-[(2S)-2-Hydroxy-3-(4-hydroxy-3-methanesulfonylamino-phenoxy)-propylamino]-ethyl}-phenylamino)-piperidine-1-carboxylic Acid 2,5-difluoro-benzylamide], the melting point was in the range of 103 to 108 °C. The “IA(β3)” value in data set [1] came out at 1.
In turn, `O=C(NCC(c1ccccc1)c1ccccc1)N1CCC(Nc2ccc(CCNC[C@H](O)COc3ccc(O)cc3)cc2)CC1` [Example 31, 4-(4-{2-[(2S)-2-Hydroxy-3-(4-hydroxy-phenoxy)-propylamino]-ethyl}-phenylamino)-piperidine-1-carboxylic Acid (2,2-diphenyl-ethyl)-amide] returned a melting point of 91 to 94 °C. Besides, in data set [1], the negative-log EC50 (pEC50) is 6.87 and 7.17; the “IA(β3)” value was 0.69 and 0.4.
For the compound `O=C(NCc1ccccc1F)N1CCC(Nc2ccc(CCNC[C@H](O)COc3ccc(O)cc3)cc2)CC1` [Example 26, 4-(4-{2-[(2S)-2-Hydroxy-3-(4-hydroxy-phenoxy)-propylamino]-ethyl}-phenylamino)-piperidine-1-carboxylic Acid 2-fluoro-benzylamide], the melting point was 79 to 84 °C. The “IA(β3)” value in data set [1] is on record as 0.91.
In the case of `CCCCCCCCNC(=O)N1CCC(Nc2ccc(CCNC[C@H](O)COc3ccc(N)nc3)cc2)CC1` (as salt: salt) [Example 5, 4-(4-{2-[(2S)-3-(6-Amino-pyridin-3-yloxy)-2-hydroxy-propylamino]-ethyl}-phenylamino)-piperidine-1-carboxylic Acid Octylamide], the melting point lay within 134 to 138 °C.

As usually defined, the pEC50 is −log10 of the EC50, conventionally taken in molar units. The melting point is the temperature, or range, at which the solid turns liquid.

For the origin of these results see patent US6451814B1, “Heterocyclic β-3 adrenergic receptor agonists” (Wyeth, priority 2000, dated 2002).
